For orientation: AUC means the area under the concentration-time curve, a measure of exposure. The IC50 is the concentration needed to halve the response being measured. One may read the pIC50 as the negative decadic logarithm of the IC50, by convention in mol/L. What is called bioavailability is dose-corrected exposure relative to a reference, in per cent. One may read the inhibition as the share of the control response that was lost under treatment. Usually half-life stands for the time in which the quantity being followed falls by half.

The values that follow come from ChEMBL document CHEMBL5244277, “A review upon medicinal perspective and designing rationale of DPP-4 inhibitors” (Bioorg Med Chem, 2021).

Each structure is given as a SMILES string. pIC50: −log10 of the molar value. Converted amounts (≈) assume the structure as drawn.

Data set [1] is described as follows: AUC in C57BL/6J mouse at 20 mg/kg, po. Type of data set: ADME, organism-based. Set-up: dose 20 mg/kg, route po. To be noted: in vivo.
A short description of data set [2]: Antioxidant activity assessed as DPPH radical scavenging activity. The data set is classed as functional.
Data set [3] has as its target T1, Dipeptidyl peptidase 4 (Homo sapiens, UniProt P27487).
Target sequence in this assay (P27487 whole entry): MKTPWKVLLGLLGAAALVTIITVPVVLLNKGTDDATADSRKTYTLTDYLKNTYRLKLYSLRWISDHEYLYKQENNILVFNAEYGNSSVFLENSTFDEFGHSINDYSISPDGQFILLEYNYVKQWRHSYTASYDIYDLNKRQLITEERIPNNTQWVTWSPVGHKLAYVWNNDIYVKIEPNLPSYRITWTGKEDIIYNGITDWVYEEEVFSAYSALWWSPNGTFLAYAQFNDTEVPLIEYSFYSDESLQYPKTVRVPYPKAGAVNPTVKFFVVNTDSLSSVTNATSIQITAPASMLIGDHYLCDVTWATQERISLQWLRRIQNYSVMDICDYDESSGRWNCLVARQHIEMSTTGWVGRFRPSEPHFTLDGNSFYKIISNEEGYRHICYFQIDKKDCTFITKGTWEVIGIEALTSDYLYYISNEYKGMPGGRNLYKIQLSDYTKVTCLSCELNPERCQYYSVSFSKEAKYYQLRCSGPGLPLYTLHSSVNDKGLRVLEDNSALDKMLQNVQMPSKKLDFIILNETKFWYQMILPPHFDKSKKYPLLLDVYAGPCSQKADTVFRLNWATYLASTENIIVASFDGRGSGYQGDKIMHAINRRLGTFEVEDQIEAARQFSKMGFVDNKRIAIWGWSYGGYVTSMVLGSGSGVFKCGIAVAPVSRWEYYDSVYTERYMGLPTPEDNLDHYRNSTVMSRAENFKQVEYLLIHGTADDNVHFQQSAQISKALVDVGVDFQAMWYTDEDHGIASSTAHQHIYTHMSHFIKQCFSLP
The test system of data set [4] is Mus musculus. Put plainly: Antidiabetic activity in ICR mouse assessed as decrease in AUC of glucose at 3 mg/kg, po. The data set is classed as functional. On the set-up: scale not given: the % may be the effect or the level left.
Data set [5] deals with T1, Dipeptidyl peptidase 4. This is another data set of the same source.
Target sequence in this assay (P27487 whole entry, looked up): as the sequence (P27487 whole entry) above
The nature of data set [6]: Bioavailability in rat. Type of data set: ADME, organism-based. To be noted: in vivo.
Data set [7] addresses T1, Dipeptidyl peptidase 4. Type of data set: cell-based, Caco-2.
Target sequence in this assay (P27487 whole entry): as above
In data set [8] the test system is Mus musculus. Briefly: Hypoglycemic activity in ICR mouse assessed as reduction in blood glucose level at 10 mg/kg. Type of data set: ADME, organism-based. On the set-up: scale not given: the % may be the effect or the level left. The note with it: in vivo.
Data set [9] has as its system Mus musculus. Put plainly: Hypoglycemic activity in ICR mouse assessed as reduction in blood glucose level at 3 mg/kg. On the set-up: scale not given: the % may be the effect or the level left. The note with it: in vivo. Type of data set: ADME, organism-based.
The target of data set [10] is T1, Dipeptidyl peptidase 4. Briefly: Inhibition of human recombinant DPP-4 at 100 uM using Gly-Pro-Aminomethylcoumarin as substrate by Spectra max fluorometer analysis relative to control.
Target sequence in this assay (P27487 whole entry, looked up): as the sequence (P27487 whole entry) above
The species entered for another data set is Homo sapiens. Put plainly: Selectivity index, ratio of IC50 for DPP-4 (unknown origin) to IC50 for DPP-8 (unknown origin).
The nature of data set [11]: Half life in mouse. Type of data set: ADME, organism-based. The note with it: in vivo.
Data set [12] deals with T1, Dipeptidyl peptidase 4. Put plainly: Inhibition of DPP4 (unknown origin) using Gly-Pro-AMC as substrate incubated for 30 mins by spectroscopic analysis.
Target sequence in this assay (P27487 whole entry): as above
Data set [13] has as its target T1, Dipeptidyl peptidase 4. Put plainly: Inhibition of DPP-4 (unknown origin) at 100 uM relative to control.
Target sequence in this assay (P27487 whole entry, looked up): as the sequence (P27487 whole entry) above
Another data set deals with Rattus norvegicus. Put plainly: Antihyperglycemic activity in STZ-induced diabetic rat model assessed as reduction in blood glucose level at 100 mg/kg, po measured upto 24 hrs. Type of data set: functional. On the set-up: scale not given: the % may be the effect or the level left.
In data set [14] the target is T1, Dipeptidyl peptidase 4. This is another data set of the same source.
Target sequence in this assay (P27487 whole entry): as above
For data set [15], the system named is Mus musculus. Briefly: Antidiabetic activity in C57BL/6J mouse assessed as decrease in AUC of glucose at 3 mg/kg, po. The data set is classed as functional. Set-up: scale not given: the % may be the effect or the level left.
Data set [16] has as its system Mus musculus. Briefly: Hypoglycemic activity in C57BL/6J mouse assessed as reduction in blood glucose level at 10 mg/kg, po measured at 20 to 80 mins by OGTT analysis. Type of data set: functional. On the set-up: scale not given: the % may be the effect or the level left. The note with it: time 20-80 min.

Take `N#C[C@@H]1CCCN1C(=O)CCCNC(=O)c1ccc(C(F)(F)F)cc1`: the AUC in data set [1] was 17400 ng·h/mL. With `O=[N+]([O-])c1cccc(/C=N/N2C(c3ccccc3)=Nc3ccc(I)cc3C2Nc2nccs2)c1` (stereo not given), in data set [2], the IC50 was determined as 51.23 µg/mL (≈ 88.3 µM).

`CC#CCn1c(N2CCC[C@@H](N)C2)cc(=O)n(Cc2cn(CCC(=O)O)nn2)c1=O`: the negative logarithm of the IC50 (pIC50) on Dipeptidyl peptidase 4 [3] is 7.90. Also, in the data set with Mus musculus [4], the Activity stood at 21.2%. `Cl.N[C@@H](CC(=O)N1CCn2c(nnc2C(F)(F)F)[C@H]1c1ccc(F)cc1)Cc1cc(F)c(F)cc1F` had an IC5 against Dipeptidyl peptidase 4 [5] of 0.00018 µM. The same molecule registered a bioavailability in [6] of 76%. At Dipeptidyl peptidase 4 [7], `N[C@@H](CC(=O)N1CCC[C@H]1CNC(=O)c1cc(S(=O)(=O)N2CCOCC2)c(F)cc1F)[C@H]1CCc2cc(F)c(F)cc21` showed a pIC50 of 9.06.

`N[C@@H](CC(=O)N1CCC[C@H]1CNC(=O)c1cccnc1)[C@H]1CCc2cc(F)c(F)cc21`: the negative-log IC50 (pIC50) against Dipeptidyl peptidase 4 [7] is 9.06. In data set [1], `N#Cc1ccc(NCCNCC(=O)N2CCC[C@H]2C#N)nc1` gave an exposure (AUC) of 21500 ng·h/mL. For the same molecule, the Activity came out at 33.51% with Mus musculus [8] and 33.48% in the data set with Mus musculus [9]. As for `NNC1=NC(N2C(=O)CSC2=O)=NC(NN)N1` (stereo not given), the IC5 against Dipeptidyl peptidase 4 [5] came to 6.25 µM.

On to `CCOC(=O)c1ccc2cc(OCC(=O)N3CCCCC3)c(=O)oc2c1`, for which, at Dipeptidyl peptidase 4 [10], the inhibition is 1.3%.

On to `N#C[C@@H]1CCCN1C(=O)[C@@H](N)CCC(=O)N1CCn2cnnc2C1`, for which the Ratio IC50 in the data set filed under Homo sapiens is more than 1000. This molecule also gave a half-life in data set [11] of less than 24 h.

For `O=C([C@H]1CC[C@@H](n2cc(-c3ccc(-c4ccccc4)cc3)nn2)C1)N1CCC(F)(F)C1`, the pIC50 against Dipeptidyl peptidase 4 [12] was 6.18. For the molecule `CC#CCn1c(N2CCC[C@@H](N)C2)cc(=O)n(Cc2cn(-c3ccccc3)nn2)c1=O`, the pIC50 against Dipeptidyl peptidase 4 [3] was 6.73. On Dipeptidyl peptidase 4 [13], `N#Cc1ccc(C2=NNc3nc(Br)nn3C2)cc1` came in with an inhibition of 48.3%.

For `CC#CCn1c(N2CCC[C@@H](N)C2)cc(=O)n(Cc2cn(C/C=C/C(=O)O)nn2)c1=O`, the pIC50 against Dipeptidyl peptidase 4 [3] is 8.02. In the data set on Mus musculus [4], the Activity is 28.1%. For the molecule `O=C(CN1CCN(c2ccnc3cc(Cl)ccc23)CC1)N1CCOCC1`, the Activity in the data set with Rattus norvegicus stood at 17.4%.

On to `N#C[C@@H]1CCCN1C(=O)[C@@H](N)CCC(=O)N1CCn2cc(C(F)(F)F)nc2C1.O=C(O)C(F)(F)F`, for which the Ratio IC50 in the data set filed under Homo sapiens was more than 1000. The half-life in data set [11] is less than 24 h.

As for `N[C@@H](CC(=O)N1CCC[C@H]1CNC(=O)c1cccc(S(N)(=O)=O)c1)[C@H]1CCc2cc(F)c(F)cc21`, the negative logarithm of the IC50 (pIC50) on Dipeptidyl peptidase 4 [7] is 9.06. With `COC(=O)c1ccc2cc(OCC(=O)Nc3ccc(C)cc3)c(=O)oc2c1`, the inhibition on Dipeptidyl peptidase 4 [10] was determined as 1.3%. In turn, `N[C@@H](CC(=O)N1CCC[C@H]1CNC(=O)c1cc(S(=O)(=O)N2CCCCC2)c(F)cc1F)[C@H]1CCc2cc(F)c(F)cc21` showed a pIC50 on Dipeptidyl peptidase 4 [7] of 9.06. On to `N#C[C@@H]1CCCN1C(=O)[C@@H](N)CCC(=O)N1CCn2nc(C(F)(F)F)nc2C1.O=C(O)C(F)(F)F`, for which the Ratio IC50 in the data set filed under Homo sapiens was more than 1000. The half-life in data set [11] was less than 24 h. In turn, `O=C([C@H]1CC[C@@H](n2cc(-c3ccccc3O)nn2)C1)N1CCC(F)(F)C1` had a negative-log IC50 (pIC50) against Dipeptidyl peptidase 4 [12] of 6.21. `CO/N=C1\CN(c2nc3c(cc2F)c(=O)c(C(=O)O)cn3C2CC2)CC1CN` (stereo not given) [GEMIFLOXACIN] had a pIC50 against Dipeptidyl peptidase 4 [14] of 5.57.

With `NCC1CN(CCCc2ccc3c(c2)OCO3)C(=O)CC1c1cc(F)ccc1F` (stereo not given), the Activity in the data set with Mus musculus [15] was 38.9%. As to `O=C(CNc1cc2ccc3ccccc3c2oc1=O)Nc1ccc(F)cc1`, at Dipeptidyl peptidase 4 [10], the inhibition is 26.7%.

On to `N[C@@H](CC(=O)N1CCC[C@H]1CNC(=O)c1cc(S(N)(=O)=O)c(F)cc1F)[C@H]1CCc2cc(F)c(F)cc21`, for which, in the data set on Mus musculus [16], the Activity was found to be 12%. The molecule also had a negative logarithm of the IC50 (pIC50) at Dipeptidyl peptidase 4 [7] of 9.06. Take `CCN(CC)S(=O)(=O)c1cc(C(=O)NC[C@@H]2CCCN2C(=O)C[C@H](N)[C@H]2CCc3cc(F)c(F)cc32)ccc1F`: the pIC50 against Dipeptidyl peptidase 4 [7] is 9.06.
